Source: patent US20060101536A1, “Eucalyptus urophylla transformation and regeneration” (ArborGen, LLC, priority 2004, published 2006)

Assays:
[1] = test system: wounded cells along the cut edges; test: Agrobacterium inducer alone in pre-culture medium, infection by GUS staining; type: cell-based
[2] = test system: E. urophylla; test: Combining auxin with Agrobacterium inducer in pre-culture, infection by GUS staining; type: cell-based, Eucalyptus urophylla; conditions: Table 8
Experimental: Induced Agrobacterium culture was prepared as described in Example 3 and the culture was dripped onto each explant by pipette. Sufficient Agrobacterium culture was dripped to ensure that all the cut edges were covered with bacterial solution. Alternatively, the explants may be transformed by vacuum infiltration, floral dip, and other methods of Agrobacterium-mediated transformation. Following transformation, explants covered with Agrobacterium culture were placed in the dark for four days of co-cultivation. Alternatively, the explants may be co-cultivated with Agrobacterium under light conditions. Additionally, the explants may be co-cultivated with Agrobacterium under light or dark conditions for 2-10 days, preferably 4 days. Following co-cultivation, the explants were transferred to Euc Regeneration medium (Table 3) with 400 mg/l timentin. There is no need to wash explants. Explants were cultured on this medium for four days before transfer to a selection medium. In the present example, the selection medium is the Euc Regeneration medium supplemented with both timentin and an herbicide selection agent.
(§1) GUS staining was performed to monitor the frequency of Agrobacterium infection and to ensure that the selected shoots are not escapes or chimeras. For transformation experiments with pWVR133, the leaf and stem tissues from the regenerated shoots were stained for GUS expression immediately upon shoot development. For transformation experiments with pWVZ20, leaf and stem tissues from the regenerated shoots were stained for GUS expression when shoots are further developed and free from residual Agrobacterium. To determine GUS activity, the explants were incubated in a substrate comprising 100 mM phosphate buffer (pH 7.0), 0.05% dimethyl suphoxide, 0.05% Triton X-100, 10 mM EDTA, 0.5 mM potassium ferrocyanide, and 1.5 mg/ml 5-bromo-4-chloro-3-indolyl-β-D-glucuronide (X-gluc). The explants were subjected to 10 minutes of vacuum before an overnight incubation at 37° C. Following overnight incubation, GUS foci were counted.
In the following examples, explants from E. urophylla clones were cultured on auxin-rich pre-culture medium with or without 250 μM AS before infection. Explants were pre-cultured with Euc Regeneration medium as the control. Following pre-culture, the explants were inoculated with Agrobacterium as described in Example 5.

[3] = test system: Elite Eucalyptus urophylla clone; test: Auxin pre-treatment, Agrobacterium infection rate by GUS staining; type: cell-based
Experimental: GUS staining was performed to monitor the frequency of Agrobacterium infection and to ensure that the selected shoots are not escapes or chimeras. […] To determine GUS activity, the explants were incubated in a substrate comprising 100 mM phosphate buffer (pH 7.0), 0.05% dimethyl suphoxide, 0.05% Triton X-100, 10 mM EDTA, 0.5 mM potassium ferrocyanide, and 1.5 mg/ml 5-bromo-4-chloro-3-indolyl-β-D-glucuronide (X-gluc). The explants were subjected to 10 minutes of vacuum before an overnight incubation at 37° C. Following overnight incubation, GUS foci were counted.
Explants from E. urophylla and E. saligna were prepared as described in Example 1 and Agrobacterium strain GV2260 containing pWVR133 was prepared as described in Example 3. Harvested explants were incubated in the dark for 4 days either on Eucalyptus regeneration medium or a medium with various auxin-rich growth regulators. Agrobacterium culture was dripped on explants and co-cultured with the explants on the same medium for 3 days in dark. Then, explants were removed from the Agrobacterium puddle and transferred to Euc Regeneration medium supplemented with 400 mg/l timentin for 4 days. Following transfer to regeneration medium, the explants were stained for GUS expression.

[4] = test system: Elite Eucalyptus urophylla clone; test: Shoot regeneration after pre-culture in control experiments; type: cell-based; conditions: medium with 1.0 mg/l 2,4-D (0.5 mg/l zeatin)
Excerpt: In addition, the regeneration is not affected by the pre-culture in control experiments.

[5] = test system: E. urophylla leaf explants; test: Geneticin selection of NPTII transformants, GUS staining of resistant calli; type: cell-based, Eucalyptus urophylla; conditions: about 10 weeks selection
Experimental: as §1
E. urophylla leaf explants were infected with Agrobacterium strain GV2260 harboring pWVC33, which contains GUS gene (driven by an constitutive promoter) and NPTII gene (driven by a different constitutive promoter). Before transforming, the explants were pre-cultured for 4 days on a medium having auxin enrichment (IAA at 2 mg/l instead of 0.1 mg/l NAA in standard regeneration medium) and acetosyringone (250 μM). As described in Example 6, the explants were infected with Agrobacterium, co-cultivated on the same medium for 3 days, and then transferred to a regeneration medium supplemented with 400 mg/l timentin for 4 days. Then, the explants were transferred to a selection medium containing geneticin instead of an herbicide selection agent.
The transformants were placed on geneticin selection medium containing geneticin (either 20 or 30 mg/l). Instead of the 3- or 4-week transfer cycles used with an herbicide selection medium, the explants were transferred bi-weekly to fresh geneticin medium. […]

[6] = 2 mg/l IAA + 5.0 mg/l zeatin, with or without 250 μM AS
[7] = Table 7, 1.0 mg/l in EucReg Medium + 5 mg/l zeatin
[8] = Table 7, 1.0 mg/l in EucReg Medium + 5 mg/l zeatin, 25 explants
[9] = Table 7, 2.0 mg/l in EucReg Medium + 5 mg/l zeatin
[10] = Table 7, 2.0 mg/l in EucReg Medium + 5 mg/l zeatin, 25 explants
[11] = Table 7, 3.0 mg/l in EucReg Medium + 5 mg/l zeatin
[12] = 0.25 mg/l 2,4-D + 5.0 mg/l zeatin, with or without 250 μM AS
[13] = Table 6, 0.25 mg/l 2,4-D + 0.5 mg/l zeatin
[14] = Table 6, 1.0 mg/l 2,4-D + 0.5 mg/l zeatin
[15] = Table 7, 0.5 mg/l in EucReg Medium + 5 mg/l zeatin
[16] = Table 7, 0.5 mg/l in EucReg Medium + 5 mg/l zeatin, 25 explants
[17] = Table 7, 0.1 mg/l in EucReg Medium + 5 mg/l zeatin
[18] = Table 7, 0.1 mg/l in EucReg Medium + 5 mg/l zeatin, 25 explants
[19] = 0.1 mg/l NAA + 5.0 mg/l zeatin (Control Regeneration Medium)
[20] = Table 6, 0.1 mg/l NAA + 5.0 mg/l zeatin (Control Regeneration Medium)

SMILES: COc1cc(C(C)=O)cc(OC)c1O [AS, acetosyringone]
- infection ([1]; AS alone in the pre-culture medium): stimulates infection
- infection of the wounded cells along the cut edges ([1]; GUS staining): increases the infection of the wounded cells along the cut edges

SMILES: O=C(O)Cc1c[nH]c2ccccc12 [IAA, indole-3-acetic acid]
- % GUS+ [2, 6]: 73%
- Avg. No. Foci/Responding Explant [2, 6]: 8.0
- No. GUS Foci [2, 6]: 289
- No. GUS+ ([2]; 2 mg/l IAA + 5.0 mg/l zeatin, with or without 250 μM AS, 49 explants): 36
- % GUS+ [3, 7]: 64%
- Avg. No. Foci/Responding Explant [3, 7]: 7.3
- No. GUS Foci [3, 7]: 116
- No. GUS+ [3, 8]: 16
- % GUS+ [3, 9]: 64%
- Avg. No. Foci/Responding Explant [3, 9]: 10.4
- No. GUS Foci [3, 9]: 167
- No. GUS+ [3, 10]: 16
- % GUS+ [3, 11]: 96%
- Avg. No. Foci/Responding Explant [3, 11]: 12.3
- No. GUS Foci [3, 11]: 565
- No. GUS+ ([3]; Table 7, 3.0 mg/l in EucReg Medium + 5 mg/l zeatin, 48 explants): 46

SMILES: O=C(O)COc1ccc(Cl)cc1Cl [2,4-D, 2,4-Dichlorophenoxy acetic acid]
- shoot regeneration [4]: delay of shoot regeneration
- % GUS+ [2, 12]: 72%
- Avg. No. Foci/Responding Explant [2, 12]: 10.8
- No. GUS Foci [2, 12]: 388
- No. GUS+ ([2]; 0.25 mg/l 2,4-D + 5.0 mg/l zeatin, with or without 250 μM AS, 50 explants): 36
- % GUS+ [3, 13]: 17%
- Avg. No. Foci/Responding Explant [3, 13]: 1.5
- No. GUS Foci [3, 13]: 7
- No. GUS+ ([3]; Table 6, 0.25 mg/l 2,4-D + 0.5 mg/l zeatin, 24 explants): 4
- % GUS+ [3, 14]: 60%
- Avg. No. Foci/Responding Explant [3, 14]: 10.3
- No. GUS Foci [3, 14]: 155
- No. GUS+ ([3]; Table 6, 1.0 mg/l 2,4-D + 0.5 mg/l zeatin, 25 explants): 15
- % GUS+ [3, 15]: 80%
- Avg. No. Foci/Responding Explant [3, 15]: 4.9
- No. GUS Foci [3, 15]: 97
- No. GUS+ [3, 16]: 20
- % GUS+ [3, 7]: 48%
- Avg. No. Foci/Responding Explant [3, 7]: 5.3
- No. GUS Foci [3, 7]: 64
- No. GUS+ [3, 8]: 12

SMILES: O=C(Nc1ccccc1)Nc1cnns1 [TDZ, thiadiazuron]
- % GUS+ [3, 17]: 12%
- Avg. No. Foci/Responding Explant [3, 17]: 8.3
- No. GUS Foci [3, 17]: 25
- No. GUS+ [3, 18]: 3
- % GUS+ [3, 15]: 4%
- Avg. No. Foci/Responding Explant [3, 15]: 3.0
- No. GUS Foci [3, 15]: 3
- No. GUS+ [3, 16]: 1
- % GUS+ [3, 7]: 0%
- Avg. No. Foci/Responding Explant [3, 7]: 0.0
- No. GUS Foci [3, 7]: 0
- No. GUS+ [3, 8]: 0

SMILES: O=C(O)Cc1cccc2ccccc12 [NAA, naphthaleneacetic acid]
- % GUS+ [2, 19]: 22%
- Avg. No. Foci/Responding Explant [2, 19]: 3.4
- No. GUS Foci [2, 19]: 37
- No. GUS+ ([2]; 0.1 mg/l NAA + 5.0 mg/l zeatin (Control Regeneration Medium), 50 explants): 11
- % GUS+ [3, 20]: 12%
- Avg. No. Foci/Responding Explant [3, 20]: 2.3
- No. GUS Foci [3, 20]: 6
- No. GUS+ ([3]; Table 6, 0.1 mg/l NAA + 5.0 mg/l zeatin (Control Regeneration Medium), 25 explants): 3
- % GUS+ [3, 17]: 16%
- Avg. No. Foci/Responding Explant [3, 17]: 1.3
- No. GUS Foci [3, 17]: 5
- No. GUS+ [3, 18]: 4
- % GUS+ [3, 7]: 52%
- Avg. No. Foci/Responding Explant [3, 7]: 2.7
- No. GUS Foci [3, 7]: 35
- No. GUS+ [3, 8]: 13
- % GUS+ [3, 9]: 36%
- Avg. No. Foci/Responding Explant [3, 9]: 3.3
- No. GUS Foci [3, 9]: 30
- No. GUS+ [3, 10]: 9

SMILES: CN[C@@H]1[C@@H](O)[C@@H](O[C@@H]2[C@@H](O)[C@H](O[C@H]3O[C@H]([C@@H](C)O)[C@@H](O)[C@H](O)[C@H]3N)[C@@H](N)C[C@H]2N)OC[C@]1(C)O [Geneticin]
- No. GUS+ Calli ([5]; Geneticin 20 mg/l, Regular shaded light, 5 calli stained): 0
- No. GUS+ Calli ([5]; Geneticin 30 mg/l, Dark, 6 calli stained): 4
- No. GUS+ Calli ([5]; Geneticin 30 mg/l, Regular shaded light, 17 calli stained): 13
